Values of other authors as cited in US20020099100A1, “Treatment of dry eye syndrome” (priority 2000, published 2002).

System: dry eye syndrome
Details: in vivo

Vitamin A
Underlying cellular changes that lead to dry eye syndrome: reverse many of the underlying cellular changes
